The values that follow come from patent publication US7588906B2, “Hydrogels for biomolecule analysis and corresponding method to analyze biomolecules” (Wisconsin Alumni Research Foundation, priority 2004, dated 2009).

Where two headings read alike, the source gives them in different places. Ends that are not written are not given here.

Data set [1] relates to Chronic Myeloid Leukemia (CML). The settings on record: cited from earlier work.
The target of data set [2] is T1, Bcr-Abl (K562 cell lysate) (Homo sapiens, UniProt P00519).
T1 construct: Source of Bcr-Abl tyrosine kinase: K562 cells (American Type Culture Collection, Manassas, Va.); endogenous in cells; host or cells: K562 cells (ATCC), clarified total cell lysate; the other entry of the earlier key: BCR (P11274, Breakpoint cluster region protein)
T1 sequence (P00519 with tags, fused parts or gaps): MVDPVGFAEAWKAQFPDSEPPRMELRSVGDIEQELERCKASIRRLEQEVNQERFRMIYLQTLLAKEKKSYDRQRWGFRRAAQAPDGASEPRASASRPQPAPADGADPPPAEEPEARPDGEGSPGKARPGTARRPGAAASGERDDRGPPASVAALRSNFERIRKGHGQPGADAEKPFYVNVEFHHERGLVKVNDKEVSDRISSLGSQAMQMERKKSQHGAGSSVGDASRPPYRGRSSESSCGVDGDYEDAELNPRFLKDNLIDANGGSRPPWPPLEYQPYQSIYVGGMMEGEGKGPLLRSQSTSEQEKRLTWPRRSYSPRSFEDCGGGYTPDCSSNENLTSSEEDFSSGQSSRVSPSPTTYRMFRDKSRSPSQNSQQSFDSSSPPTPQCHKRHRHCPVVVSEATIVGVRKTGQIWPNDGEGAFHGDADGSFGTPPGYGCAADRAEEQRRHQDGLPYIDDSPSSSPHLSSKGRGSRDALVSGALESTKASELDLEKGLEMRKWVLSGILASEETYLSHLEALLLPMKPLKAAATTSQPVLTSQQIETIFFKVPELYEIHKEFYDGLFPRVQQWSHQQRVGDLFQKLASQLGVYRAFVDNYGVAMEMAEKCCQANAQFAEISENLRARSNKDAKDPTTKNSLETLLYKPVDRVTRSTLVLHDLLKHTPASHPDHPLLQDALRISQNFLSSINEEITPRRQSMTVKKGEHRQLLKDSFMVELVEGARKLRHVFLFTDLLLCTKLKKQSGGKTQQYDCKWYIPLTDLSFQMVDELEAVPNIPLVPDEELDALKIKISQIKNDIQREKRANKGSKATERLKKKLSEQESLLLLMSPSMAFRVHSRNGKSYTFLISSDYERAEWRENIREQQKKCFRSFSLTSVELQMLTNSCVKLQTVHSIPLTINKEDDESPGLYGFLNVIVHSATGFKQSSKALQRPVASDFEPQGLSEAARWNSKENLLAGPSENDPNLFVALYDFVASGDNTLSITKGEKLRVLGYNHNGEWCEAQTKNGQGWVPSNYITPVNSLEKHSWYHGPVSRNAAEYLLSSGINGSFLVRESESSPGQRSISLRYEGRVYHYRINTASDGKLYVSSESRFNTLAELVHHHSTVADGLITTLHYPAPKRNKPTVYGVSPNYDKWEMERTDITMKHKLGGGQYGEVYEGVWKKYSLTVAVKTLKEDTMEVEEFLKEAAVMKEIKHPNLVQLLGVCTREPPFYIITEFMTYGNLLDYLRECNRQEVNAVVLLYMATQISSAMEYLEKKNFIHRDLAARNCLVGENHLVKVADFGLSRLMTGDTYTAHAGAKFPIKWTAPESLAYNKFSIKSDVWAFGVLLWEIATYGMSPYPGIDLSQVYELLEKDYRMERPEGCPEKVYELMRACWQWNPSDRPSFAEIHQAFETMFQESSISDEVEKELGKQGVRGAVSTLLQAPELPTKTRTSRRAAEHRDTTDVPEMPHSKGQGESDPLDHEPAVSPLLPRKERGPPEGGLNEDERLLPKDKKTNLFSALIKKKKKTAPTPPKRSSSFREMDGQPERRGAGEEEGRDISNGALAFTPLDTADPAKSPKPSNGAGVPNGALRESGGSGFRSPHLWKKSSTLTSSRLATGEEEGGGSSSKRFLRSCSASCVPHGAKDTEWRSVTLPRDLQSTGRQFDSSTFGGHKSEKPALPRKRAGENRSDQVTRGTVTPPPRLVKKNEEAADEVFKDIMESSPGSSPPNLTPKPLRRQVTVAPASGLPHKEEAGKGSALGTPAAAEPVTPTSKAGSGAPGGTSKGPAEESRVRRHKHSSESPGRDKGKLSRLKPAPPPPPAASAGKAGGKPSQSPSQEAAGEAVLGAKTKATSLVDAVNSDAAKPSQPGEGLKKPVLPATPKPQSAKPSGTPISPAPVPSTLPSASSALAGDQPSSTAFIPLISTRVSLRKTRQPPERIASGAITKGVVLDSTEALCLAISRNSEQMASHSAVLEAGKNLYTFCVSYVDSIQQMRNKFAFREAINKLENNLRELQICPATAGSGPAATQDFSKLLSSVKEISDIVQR
Put plainly: Array-based K562 cell lysate kinase assay on GST-Crkl substrates immobilized in polyacrylamide hydrogels, ECL phosphotyrosine detection. It is filed as biochemical. The settings on record: for Inhibition of Bcr-Abl activity over the range studied / Inhibition of Bcr-Abl activity at 100 μM / Inhibition of Bcr-Abl activity at 1 mM: GST-Crkl (SH3), 2 h; for Inhibition of Bcr-Abl activity over the range studied: 100 nM to 1 mM inhibitor; for IC50: GST-Crkl (SH3) 165 ng/mm^2, 2 h, inhibitor 100 nM to 1 mM, read-out: IC50 for inhibition of Bcr-Abl activity, inhibitor screen; for Inhibition of Bcr-Abl activity at 100 μM: 100 μM inhibitor; for Inhibition of Bcr-Abl activity at 1 mM: 1 mM inhibitor. As for the experimental part:
Preparation of K562 and HL60 Cell Lysates: K562 and HL60 cells (ATCC, Manassas, Va.) were cultured at 37° C. and 5% CO2 in RPMI-1640 media (Cambrex Bio Science, Walkersville, Md.) containing 100 units/ml penicillin, 100 μg/ml streptomycin, and 10% FBS. For lysis, cells were resuspended at 5×10^7 cells/ml in lysis buffer (42.3 mM HEPES, 126 mM NaCl, 1.27 mM MgCl2, 0.85 mM EDTA, 84.5 mM NaF, 8.45 mM sodium pyrophosphate, 0.169 mM sodium orthovanadate, 1 mM PMSF, 0.95% Triton X-100, 9.5% glycerol, 4% 25× complete protease inhibitor, pH 7.4) and incubated on ice for 20 min. The total cell lysate was then clarified by spinning at 1500 rpm for 10 min. Total protein concentration was determined via a Pierce BCA protein assay kit (Pierce, Rockford, Ill.) and cell lysates were stored at −80° C. until further use.
Fabrication of Protein Arrays: Glass slides were acrylic-functionalized and GST-Crkl fusion proteins were acrylic-labeled as described in the previous Examples. Briefly, fusion proteins were labeled on primary amines by reaction with 6-((acrylo)amino) hexanoic acid, succinimidyl ester (Molecular Probes, Eugene, Oreg.) and clean glass slides were functionalized via reaction with (3-acryloxypropyl)-trimethoxysilane (Gelest, Tullytown, Pa.).
Following functionalization of the glass slides, a thin layer of 18.8% polyacrylamide gel was attached to the glass surface. Forty μl of a mixture containing 125 μl 1.5 M Tris, pH 8.8; 285 μl 33% acrylamide mix (0.86 g N,N′-methylenebisacrylamide (Bis) and 32.14 g acrylamide in a total volume of 100 ml); 5 μl 10% ammonium persulfate (APS); 75 μl 100% glycerol; 0.5 μl N,N,N′,N′-tetramethylethylenediamine (TEMED); and 9.5 μl water was sandwiched between an acrylic-functionalized glass slide and a clean glass plate and allowed to polymerize in a N2 environment at room temperature for 30 min. The glass plate was then removed and 1 μl protein spots were polymerized on top of the 18.8% acrylamide base layer from the following mixture: 6.25 μl 1.5 M Tris, pH 8.8; 3 μl 33% acrylamide mix; 0.5 μl 10% APS; 3.75 μl 100% glycerol; 0.1 μl TEMED; 0 to 7.5 μl acrylic-labeled GST-Crkl protein solution; and water to a total volume of 25 μl. Additionally, 3 μl spacer spots of the above mixture without protein were added on the exterior corners of the protein array for the subsequent creation of a reaction chamber as described below. After attachment of the protein-acrylamide copolymer spots the slides were washed by briefly dipping into approximately 250 ml of TBST (10 mM Tris-HCl, 100 mM NaCl, 0.1% Tween-20, pH 7.5) followed by a 15 minute and two 5 minute washes with slight agitation in approximately 20 ml of TBST. Slides were then washed by briefly dipping into approximately 250 ml of water followed by two 5 minute washes with slight agitation in approximately 20 ml of water, before being stored overnight at 4° C. in Abl kinase assay buffer (50 mM Tris-HCl, 10 mM MgCl2, 100 μM EDTA, 1 mM DTT, 0.015% Brij 35, 100 μg/ml BSA, pH 7.5).
Array-Based Kinase Assays: Just prior to the kinase assay, the glass slides were removed from the Abl kinase assay buffer and dried under a stream of compressed air. Careful attention was paid to make sure that only the bare portions of the slide were dried and the polyacrylamide spots and polyacrylamide base layer remained hydrated. Using the 3 μl spacer spots, a reaction chamber was then created by suspending a clean glass slide over top of the 1 μl protein-acrylamide copolymer hydrogel spots. […] Aliquots (250 μl) of these kinase reaction mixtures were then applied to each reaction chamber and the reactions allowed to proceed for 30 min to 5 h at 30° C. in a saturated environment. After the reaction, the glass slide used to create the reaction chamber was removed and the protein array was washed by briefly dipping into approximately 250 ml TBST followed by a 15 minute and two 5 minute washes with slight agitation in approximately 20 ml of TBST.

Data set [3] concerns the target T2, protein-tyrosine kinase p60c-src (Homo sapiens, UniProt P12931).
T2 construct: purchased Calbiochem, San Diego, Calif
The data set is described as follows: Surface kinase assay, phosphorylation of hydrogel-immobilized GST-[…]. The class given is biochemical. Here is the method: Surface protein kinase assays were carried out in a fashion similar to the solution kinase assays. Glass slides containing 0 to 600 ng of GST-[…] (SEQ. ID. NO: 1) per 1 μl polyacrylamide spot were prepared as above and stored overnight in kinase assay buffer (50 mM HEPES, 0.1 mM EDTA, 0.015% Brij 35, pH 7.5) at 4° C. Just prior to the kinase assay, these slides were dried under a stream of compressed air. […] The protein kinase reaction mixture containing 1.5 μl of 50% glycerol, 1.5 μl of ATP mix, and 0.3 units of p60^c-src in 1.5 μl of kinase dilution buffer was placed on top of each polyacrylamide spot and the slides were incubated in a humidity chamber at 37° C. for 10 minutes to 5.5 hours.
In the case of phosphotyrosine detection, a similar procedure was followed with the substitution of TBST for PBST as the buffer and BSA for milk as the blocking agent. These substitutions were required to reduce the nonspecific binding of the secondary antibody used in this detection scheme. […] The slides were then stored in TBST until detection.
In the case of the nitrocellulose membranes, 20 ml of ECL detection reagent was used per membrane.

In data set [4] the target is T2, protein-tyrosine kinase p60c-src. The data set is described as follows: Solution kinase assay, phosphorylation of GST-[…]. The class given is biochemical. The note with it: solution reaction, Lineweaver-Burk plot. Here is the method:
Solution protein kinase assays with protein-tyrosine kinase p60^c-src (Calbiochem, San Diego, Calif.) were carried out according to the manufacture's instructions. Briefly, reaction mixtures containing 1.5 μl of 50% glycerol, 1.5 μl of ATP mix (0.15 mM ATP, 30 mM MgCl2), 0.3 units of p60^c-src in 1.5 μl kinase dilution buffer (50 mM HEPES, 0.1 mM EDTA, 0.015% Brij 35, 0.1 mg/ml BSA, 0.2% β-mercaptoethanol, pH 7.5), and 1 μl GST-[…] (SEQ. ID. NO: 1) solution (50 mM HEPES, 0.1 mM EDTA, 0.015% Brij 35, pH 7.5 containing anywhere from 0 to 600 ng of GST-[…]) were incubated at 37° C. for times ranging from 10 minutes to 5.5 hours. After each kinase reaction the samples were mixed with 94.5 μl of TBS (10 mM Tris-HCl, 100 mM NaCl, pH 7.5) containing 1% SDS and heated to 97° C. for 5 minutes. Upon cooling, the samples were transferred to a nitrocellulose membrane using a Dot Blot apparatus (Biorad, Hercules, Calif.) following the manufacture's instructions. Prior to assembly of the Dot Blot apparatus, the membrane was wetted in TBS for 10 minutes. The apparatus was then assembled and each well was washed twice with 100 μl of TBS. 50 μl of the kinase reaction product was applied to each well. After application of the reaction mixture the wells were washed twice with 200 μl of TBS containing 0.05% Tween-20. […]

The target of data set [5] is T3, v-Abl tyrosine kinase (Abelson murine leukemia virus, UniProt P00521).
T3 sequence (P00521 1-746): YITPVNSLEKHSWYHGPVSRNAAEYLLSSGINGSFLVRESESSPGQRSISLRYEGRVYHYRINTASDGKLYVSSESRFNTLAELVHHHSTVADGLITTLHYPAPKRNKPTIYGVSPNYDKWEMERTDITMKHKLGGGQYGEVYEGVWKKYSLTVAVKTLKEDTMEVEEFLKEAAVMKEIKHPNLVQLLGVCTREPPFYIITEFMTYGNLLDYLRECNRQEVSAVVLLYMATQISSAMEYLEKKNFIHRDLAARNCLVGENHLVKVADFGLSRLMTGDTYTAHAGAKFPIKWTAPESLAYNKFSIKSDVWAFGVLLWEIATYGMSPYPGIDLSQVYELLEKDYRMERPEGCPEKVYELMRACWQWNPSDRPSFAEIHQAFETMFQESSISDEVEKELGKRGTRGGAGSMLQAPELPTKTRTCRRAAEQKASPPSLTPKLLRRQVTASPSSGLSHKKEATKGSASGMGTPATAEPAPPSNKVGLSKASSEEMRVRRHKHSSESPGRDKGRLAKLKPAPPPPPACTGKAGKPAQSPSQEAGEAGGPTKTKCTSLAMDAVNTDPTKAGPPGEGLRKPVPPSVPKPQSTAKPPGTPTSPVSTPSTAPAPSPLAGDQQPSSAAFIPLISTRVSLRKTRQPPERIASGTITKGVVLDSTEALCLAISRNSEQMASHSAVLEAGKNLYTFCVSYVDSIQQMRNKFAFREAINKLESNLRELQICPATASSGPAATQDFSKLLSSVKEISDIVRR
Put plainly: v-Abl phosphorylation of hydrogel-immobilized Abl peptide, MALDI mass spectrometry detection. It is filed as biochemical. The note with it: 3 hours, 30° C., estimated from MALDI spectrum FIG. 24B.
Text: The acrylic-labeled peptides were then incorporated into peptide-acrylamide copolymer hydrogels as described in the previous examples. Briefly recapping, individual peptide acrylamide copolymer hydrogel spots were attached to stainless steal MALDI target plates (16) (Applied Biosystems, Foster, Calif.) and acrylic-functionalized glass slides.
The peptide-acrylamide copolymer hydrogels were then subjected to enzyme-mediated phosphorylation reactions. Substrates containing peptide-acrylamide copolymer hydrogels were washed by sonication in approximately 20 ml of H2O for 10 mm and dried under compressed air. The substrates were then reconstituted in a v-Abl reaction mixture and incubated at 30° C. in a saturated environment for 3 hours. […] Following the phosphorylation reaction, the solid substrates were sonicated twice in approximately 20 ml of H2O for 10 mm and dried under compressed air.
After the phosphorylation reactions, the copolymer hydrogels were subjected to MALDI mass spectrometry analysis. Stainless steel MALDI target plates and glass slides containing peptide-acrylamide copolymer hydrogels were analyzed on an ABI Voyager 4700 MALDI-TOF/TOF mass spectrometer (Applied Biosystems). […] The samples were then analyzed in linear positive, linear negative, reflector positive, and reflector negative modes to detect the phosphorylated samples.

Consider `Cc1ccc(NC(=O)c2ccc(CN3CCN(C)CC3)cc2)cc1Nc1nccc(-c2cccnc2)n1` [Glivec], for which, in data set [1] (CML patients), the Complete cytogenetic remission was 41 % of patients and the Side effects result was “much milder side effects”.
Take `N#C/C(=C/c1ccc(O)c(O)c1)C(=O)NCc1ccccc1` [AG490]: in data set [2], the “Inhibition of Bcr-Abl activity over the range studied” value is recorded as “do not inhibit”.
As for `COc1cc2ncc(-c3ccccc3)nc2cc1OC` [AG1296], in data set [2], the “Inhibition of Bcr-Abl activity over the range studied” value is “do not inhibit”.
A word on the Km: it is the concentration of substrate that gives half-maximal velocity. Take “GST-EEEIYGEFE: GST-peptide fusion (SEQ. ID. NO: 1) carrying the consensus sequence for c-Src tyrosine phosphorylation ({GST}-EEEIYGEFE)”: the “Vmax, phosphorylation by c-Src of surface-immobilized substrate” value in data set [3] (surface reaction, polyacrylamide hydrogel spot, Lineweaver-Burk plot) was determined as 9.7±0.63 arbitrary units. For the same molecule, the Km in data set [3] (surface reaction, polyacrylamide hydrogel spot, Lineweaver-Burk plot, read-out: Km, phosphorylation by c-Src of surface-immobilized substrate) is 0.36 ± 0.033 µM; in data set [4] (read-out: Km, phosphorylation by c-Src in solution) it was 2.7 ± 1 µM. Besides, in data set [3] (surface vs. solution), the “Km of surface reaction lower than in solution” value is reported as “approximately 10 fold”. Further, in data set [4], the “Vmax, phosphorylation by c-Src in solution” value was 8.1±3.1 arbitrary units.
Regarding α-interferon, the “Survival as compared to conventional chemotherapy” value in data set [1] (CML patients) is on record as “prolong survival by about a year”. Further, in data set [1] (human, in vivo), the Side effects entry was “significant side effects”.
As to H-EAIYAAPFAKKK-OH [Abl peptide], in data set [5], the Extent of phosphorylation result is recorded as “approximately 90%”.
A word on the IC50: it is the concentration that inhibits the measured activity by half. As to `C[C@@H](Nc1ncnc2[nH]c(-c3ccc(O)cc3)cc12)c1ccccc1` [PKI166], in data set [2], the IC50 is approximately 100 µM, the “Inhibition of Bcr-Abl activity at 100 μM” value is “Significant inhibition” and the “Inhibition of Bcr-Abl activity at 1 mM” value is given as “Significant inhibition”. The “Inhibition of Bcr-Abl activity at 100 μM” value in data set [2] (listed as PKI 166) is “slight inhibition”.
Consider `COc1cc2ncnc(Nc3cccc(Cl)c3)c2cc1OC` [AG1478], for which, in data set [2], the IC50 is approximately 100 µM, the “Inhibition of Bcr-Abl activity at 100 μM” value was “Significant inhibition” and the “Inhibition of Bcr-Abl activity at 1 mM” value is “Significant inhibition”. Further, the “Inhibition of Bcr-Abl activity at 100 μM” value in data set [2] (listed as AG 1478) is on record as “slight inhibition”.
